In US5229367A, “Antiinflammatory peptide derived from human lipocortin V” (Sclavo S.p.A., priority 1991, dated 1993):
In brackets after ≈: the same amount, converted by molar mass. Read-outs that look alike come from different tables or passages of the source. Peptide text beside a SMILES is read from it.

Legend:
[1] = target: T1, phospholipase A2 (pig pancreas phospholipase preparation) (Sus scrofa, UniProt P00592); assay: Inhibition of PLA2 induced contractions in rat stomach strip; details: peptide 20 μg/ml, 30 min; PLA2 4.4 μg/ml; mean of four samples
T1 construct: pig pancreas phospholipase preparation from Sigma; purchased Sigma; host or cells: pig pancreas (tissue-derived preparation)
Procedure: The rat stomach bottom strip was prepared as originally described by Vane (Br. J. Pharmacol., 12: 344-349, 1957) and suspended in a small bath for resected organs, thermostated at 37° in Krebs solution. After two hours stabilisation in said bath, the stomach reacts to phospholipase A2 stimulation (pig pancreas phospholipase preparation from Sigma) by contracting. These contractions are recorded by means of an isotonic transductor on recorder (Firm Basile). The contracting effect of the PLA2 is concentration-dependent and a concentration of 4.4 μg/ml was used in the experiments with the peptide 204-212. The experiments were carried out as follows:
a) estimation of the stomach contracting effect by the PLA2 at the final concentration of 4.4 μg/ml (control value)
b) after thoroughly washing the strip, peptide (I) was added at the concentration of 20 μg/ml and the effect of the PLA2 was estimated again after 30 min (sample).

[2] = tested on: carrageenin induced oedema in rat paw; assay: Inhibition of carrageenin induced oedema in rat paw; assay type: in vivo; details: for Oedema 3 hours Inhibition %: 3 hours after carrageenin; for Oedema 4 hours Inhibition %: 4 hours after carrageenin
Procedure: The carrageenin induced oedema in the rat paw was generated as disclosed by Parente et al. (Eur. J. Pharmacol., 99: 233-239, (1984). Practically 0.1 ml physiological solution comprising 1% (w/v) lambda carrageenin (Sigma) were injected subcutaneously into the right back paw of male Wistar rats weighing 200 g pretreated as follows: 5 rats (control) were locally inoculated with 100 μl sterile physiological solution; 5 rats were locally injected with 100 μl physiological solution comprising […] (respectively corresponding to a dose of 2 and 0.5 mg/Kg) synthetic peptide 204-212. The oedema was measured with a water plethysmometer 3 and 4 hours after the carrageenin injection. The results in Table 5 show an inhibition of the oedema due to the peptide 204-212 and moreover that the extent of the inhibition is dose-dependent.

[3] = tested on: PLA2 induced oedema in rat paw; assay: Inhibition of PLA2 induced oedema in rat paw; assay type: in vivo; details: 2 mg/Kg (400 μg) co-injected with 5 μg PLA2 into paw, mean of five
Procedure: The oedema induced by PLA2 in the rat paw was generated according to the modified technique of Marshall et al. (J. Cell Biochem. suppl. 12 E: S325, 1985). Practically, the enzyme phospholipase A2 (Naja Mocambique), with a specific activity of about 400 units/mg protein, was dissolved into a physiological solution comprising calcium chloride 1 mM to a final concentration of 100 μg/ml. Thereafter samples (0.5 ml) of said solution were diluted 1:1 (v/v) either with a physiological solution as such, or with a physiological solution comprising the synthetic peptide 204-212 at a concentration of 8 mg/ml. The thus obtained solutions were incubated at 37° C. for 15 min. At the end of this incubation period, 0.1 ml of the solutions either comprising 5 μg of PLA2 only, or additionally 400 μg of the synthetic peptide, were injected into the right back paw of male Wistar rats of 200 g weight (thus the synthetic peptide 204- 212 was given at a 2 mg/Kg dose). The oedema in the paw was measured by means of a water plesthysomometer 30 and 60 min after the injection. The results reported in Table 4 confirm the in vivo PLA2 inhibiting effect of the peptide 204-212.

human fibroblasts = details: for Inhibition %: PGE2 release, bradykinin 1 μM
Procedure: Thereafter 0.2 ml of said suspension were placed into each well of a 96 flat bottomed well Cluster dish (firm Costar) and incubated at 37° C. for 72 hours. At the end of said period the cells were washed three times with 0.2 ml medium without serum and then incubated for 60 min at 37° C. as follows:
one part in 0.2 ml DMEM medium without bovine foetal serum (control);
Bradykinin (Sigma) was added thereafter to the final concentration of 1 μM to all the samples, and the incubation was maintained for a further 30 min. Finally the determination of PGE2 in the cell-free supernatants was carried out by making use of a radioimmunoassay.

[4] = tested on: rat peritoneal leukocytes; assay: Inhibition of zymosan-stimulated prostaglandin E2 release in rat peritoneal leukocytes (radioimmunoassay); assay type: cell-based; details: peptide 100 μg/ml
Procedure: Rat peritoneal leukocytes were collected and purified as described by Parente and Flower (supra), then suspended in Krebs solution oxygenated with Carbogen at a final concentration of 1.10^6 cells/ml. Samples (1 ml) of said suspension were incubated in a thermostatic bath at 37° C. for 30 min in the presence (100 μg/ml) and in the absence (control) of the synthetic peptide 204-212. The incubation was maintained for a further 60 min at 37° C. after addition to each culture of 200 μg/ml Zymosan (activated by opsonization, i.e. incubated with mouse serum for 30 min at 37° C.). At the end of this time the cells were separated from the suspension by centrifugation at 10,000 rpm for 5 min using an Eppendorf centrifuge model 5414. The supernatants thus recovered were analysed by radioimmunoassay to monitor the prostaglandin E2 (PGE2) levels.

T1 sequence (P00592 23-146): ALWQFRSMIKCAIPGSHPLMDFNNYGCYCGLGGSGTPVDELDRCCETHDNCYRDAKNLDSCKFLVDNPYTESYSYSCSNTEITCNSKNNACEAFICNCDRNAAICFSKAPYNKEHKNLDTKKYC

**Q.** `CC(C)C[C@H](NC(=O)[C@H](Cc1c[nH]cn1)NC(=O)[C@@H](N)CO)C(=O)N[C@@H](CCCNC(=N)N)C(=O)N[C@@H](CCCCN)C(=O)N[C@H](C(=O)N[C@@H](Cc1ccccc1)C(=O)N[C@@H](CC(=O)O)C(=O)N[C@@H](CCCCN)C(=O)O)C(C)C` [Peptide 204-212, H-Ser-His-Leu-Arg-Lys-Val-Phe-Asp-Lys-X] (H-SHLRKVFDK-OH) was tested. Which inhibition at 20 µg/mL [1] did it give?
**A.** 60.5%

**Q.** What about the “Oedema 3 hours Inhibition %” value ([2]; 0.5 mg/Kg local injection) of the same compound?
**A.** 22.7 ± 8.3%

**Q.** What about the “Oedema 4 hours Inhibition %” value ([2]; 0.5 mg/Kg local injection) of the same compound?
**A.** 13.7 ± 5.1%

**Q.** And the “Oedema 3 hours Inhibition %” value ([2]; 2.0 mg/Kg local injection)?
**A.** 37.0 ± 3.3%

**Q.** What about the “Oedema 4 hours Inhibition %” value ([2]; 2.0 mg/Kg local injection) of the same compound?
**A.** 37.5 ± 10.1%

**Q.** And the “Oedema 30 min” value ([3]; 30 min after injection)?
**A.** 25.4 ± 7.7

**Q.** And the “Oedema 60 min” value ([3]; 60 min after injection)?
**A.** 25.4 ± 7.8

**Q.** And the “ED 50” value (human fibroblasts)?
**A.** 1.13 µg/mL (≈ 1 µM)

**Q.** What about the Inhibition % (human fibroblasts; 1 ng/ml) of the same compound?
**A.** 0%

**Q.** What about the Inhibition % (human fibroblasts; 10 ng/ml) of the same compound?
**A.** 16 ± 2%

**Q.** And the Inhibition % (human fibroblasts; 100 ng/ml)?
**A.** 41 ± 7%

**Q.** What about the Inhibition % (human fibroblasts; 1 μg/ml) of the same compound?
**A.** 43 ± 4%

**Q.** And the Inhibition % (human fibroblasts; 10 μg/ml)?
**A.** 63 ± 7%

**Q.** And the Inhibition % (human fibroblasts; 100 μg/ml)?
**A.** 94 ± 6%

**Q.** What about the Inhibition % ([4]; PGE2 release) of the same compound?
**A.** 49.8%

**Q.** And the PGE2 ([4]; 200 μg/ml opsonized Zymosan, supernatant PGE2 level, mean of three samples plus standard error, control 253.7 + 22.8)?
**A.** 129.0 + 16.9
